# Test results as given in US10967032B2, “Optimum ratio for herbs combination obtained by using scientific-based formula for hypertension treatment and a composition thereof” (priority 2017, dated 2021).
# Assays:
# [1] = test system: inositol triphosphate receptor (IP3R); experiment: IP3R study: PE-induced contraction of pre-treated endothelium-denuded aortic rings; format: cell-based, rat; settings: 100 μM pre-incubation; P<0.001
# Protocol: Similar with the VOCC mechanism study, three sets of experiments were carried out for investigating IP3R including the positive control set by applying the 2-APB (100 μM), control set (without treatment), and experimental sets by applying F1-2 (100 μl of 0.5, 2, and 8 mg/ml, separately, which equals to final concentration of 0.005, 0.02, and 0.08 mg/ml in tissue bath), in the endothelium-denuded isolated aortic rings. Similar protocol as elaborated in VOCC mechanism study was used to investigate this mechanism study. The only step different from VOCC mechanism study was the cumulative addition of CaCl2 was replaced by adding PE (1 μM) and left for 20 minutes to induce transient contraction after the 20 minutes pre-incubation with either 2-APB (positive control), F1-2 (experimental sets). The Cmax values were recorded and compared among each other.
# [2] = test system: voltage-operated calcium channel (VOCC); experiment: VOCC study: CaCl2-induced vasoconstriction of pre-treated aortic rings; format: cell-based, rat; settings: 0.1, 0.3, 1 μM pre-incubation
# Protocol: The experiment started by rinsing the mounted aortic rings with normal Krebs' solution for 3 times at 10 minutes interval. After that, the aortic rings were rinsed with EGTA (0.2 mM) contained Ca^2+-free high K^+ Krebs' solution for 10 minutes to eradicate the Ca^2+ residue, followed by rinsing with Ca^2+-free high K^+ Krebs' solution for twice at 10 minutes intervals. The resting potential was re-adjusted to 1.0 g before the application of any chemicals. In the control set, CaCl2 was added cumulatively (0.01-10 mM) into the tissue bath at 3 minutes interval. […] In the experimental groups, the F1-2 was added into tissue baths for 20 minutes before the addition of CaCl2. After that, the concentration-response curves were constructed, and maximum contraction (Cmax) values were recorded and compared to each other.
# [3] = test system: spontaneous hypertensive rats (SHRs); experiment: Antihypertensive effect in SHRs, 28 days oral administration, tail-cuff SBP, DBP, MAP; format: in vivo, rat; settings: 80 mg/kg oral
# Protocol: All the orally administrated drugs were freshly prepared on the day the experiment was carried out. Thirty male SHRs were divided into five groups (n=6 per group) as such negative control, positive control (80 mg/kg of propranolol), and experimental groups (three different dosages for different groups). The weight, systolic BP, diastolic BP, and MAP of all SHRs in five groups were determined before the experiment was carried out and assigned as results for week 0. The negative control group of SHRs was treated with 5 ml/kg of distilled water. The positive control group was treated with 80 mg/kg of propranolol. The experimental groups were treated with 0.24273 (small dose), 0.48546 (medium dose), and 0.97092 g/kg (high dose) of F1-2, separately. Propranolol and F1-2 were prepared by dissolving in 0.5% of CMC prior to the administration. All drugs were orally administrated by using the 14-sized curved feeding needle (Kent Scientific Corporation, Torrington, Conn., USA) every morning after eight hours of fasting the night before, and were treated for 28 days consecutively with their weight, systolic BP, diastolic BP, and MAP measured once a week.
# The SBP, DBP, and MAP were measured by using tail-cuff method with the non-invasive blood pressure measurement system, CODA (Kent Scientific Corporation, Torrington, Conn., USA) which was equipped with a controller, laptop CODA software, cuffs, animal restrainers, infrared warming pads, and infrared thermometer. The measurements were performed by the same researcher at the same daytime once weekly. Before the experiments commenced, the SHRs were housed in the restrainer according to their body size and pre-warmed on the warming plate at 32° C. and were covered by warming blanket for at least 15 minutes to intensify the pulsation of the tail artery. The measurements were repeated at least […] for each SHR to obtain at least six accepted measurements (n=6) by the CODA program. The obtained SBP, DBP, MAP of positive control and experimental groups were compared to the negative control.
structure (smiles),measurement,setting,value
"NCCOB(c1ccccc1)c1ccccc1 [Formula 2-APB, 2-APB]",contraction tension abolished compared to control,[1],approximately 97%
COC(=O)C1=C(C)NC(C)=C(C(=O)OC)C1c1ccccc1[N+](=O)[O-] [nifedipine],suppression of the contractile tone compared to control,[2],at least 80%
CC(C)NCC(O)COc1cccc2ccccc12 (centres unmarked) [propranolol],DBP,"[3]; 28 days, control 189.19±3.61",139.69±3.15 mmHg
same,MAP,"[3]; 28 days, control 200.97±3.22",152.06±3.10 mmHg
same,SBP,"[3]; week 4 (28 days), control 225.81±2.77",182.08±2.38 mmHg
